In patent publication US20260132126A1, “IMIDAZOLE DERIVATIVES” (SANWA KAGAKU KENKYUSHO CO., LTD., priority 2022, published 2026) one finds Emax and EC50 data, which are given here for 36 compounds.

The test deals with T1, human α1A adrenergic receptor (Homo sapiens, UniProt P35348).
T1 construct: host or cells: GeneBLAzer ADRA1A-NFAT-bla CHO-K1 cells
T1 sequence (P35348 1-466): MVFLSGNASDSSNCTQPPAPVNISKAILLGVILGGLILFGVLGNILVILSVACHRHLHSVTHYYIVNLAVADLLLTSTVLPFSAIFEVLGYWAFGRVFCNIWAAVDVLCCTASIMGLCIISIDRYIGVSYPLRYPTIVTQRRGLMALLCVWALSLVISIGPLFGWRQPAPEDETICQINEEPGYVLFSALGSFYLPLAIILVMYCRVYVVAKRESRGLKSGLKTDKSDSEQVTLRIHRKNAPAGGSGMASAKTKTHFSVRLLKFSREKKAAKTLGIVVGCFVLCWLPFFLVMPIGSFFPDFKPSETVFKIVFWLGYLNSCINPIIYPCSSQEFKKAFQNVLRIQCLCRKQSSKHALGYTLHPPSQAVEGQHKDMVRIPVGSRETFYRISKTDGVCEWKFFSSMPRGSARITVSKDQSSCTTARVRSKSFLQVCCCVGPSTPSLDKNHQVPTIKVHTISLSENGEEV
In words: Ca2+ mobilization assay in human α1A adrenergic receptor-expressing cells. Set-up: Emax: dose or concentration left out as unconfirmed. Conditions: for Emax at 10 µM: % activation at 10 μmol/L test compound, 100 μmol/L norepinephrine = 100%, well without test compound = 0%; for EC50: CHO-K1 cells expressing human α1A adrenergic receptor, Fluo-4 fluorescence, concentration giving 50% response of Emax, 4-parameter logistic regression. Format: cell-based. The method, then:
CHO-K1 cells that highly express a human α1A adrenergic receptor (GeneBLAzer™ ADRA1A-NFAT-bla CHO-K1 Cells) were purchased from Thermo Fisher Scientific, Inc., and cultured according to the instructions.
The cultured human α1A adrenergic receptor-expressing cells were washed with D-PBS, then replaced with a loading buffer (2 μmol/L Fluo-4/AM, 1× PowerLoad, 2.5 mmol/L Probenecid-containing DMEM (high-glucose)) and incubated at 37° C. for 60 minutes in a 5% CO2 incubator. The cells were detached using 0.05% trypsin-EDTA solution, and suspended in an assay buffer ([…], 0.054 mol/L KCl, 1.8 mmol/L CaCl2), 1 mmol/L MgSO4, 0.11 mol/L glucose, 0.01 mol/L NaH2PO4·2H2O, […], pH 7.3) to be 500,000 cells/mL.
Test compounds were dissolved in dimethylsulfoxide, and diluted with an assay buffer containing 0.3% BSA. The final concentrations of the test compounds were set to fall within the range of 0.1 nmol/L to 10 μmol/L. As a reference compound, norepinephrine was set to have a final concentration within the range of 0.01 nmol/L to 100 μmol/L.
On a 384-well clear bottom black plate coated with poly-D-lysine (Corning Inc.), the above-described cell-suspended solution was dispersed in 40 μL each (20,000 cells/well) and allowed to stand for 10 minutes. The plate was transferred to a fluorescent imaging plate reader (FDSS7000, Hamamatsu Photonics K.K.), and measurements were started. After 1 minute from the start of the measurements, 20 μL of the test compound solutions or norepinephrine solution (total amount: 60 μL/well) was added to each well of the plate (final concentration: 0.1% BSA, 0.1% dimethylsulfoxide), and the temporal change in fluorescence intensity of Fluo-4 was further measured for 5 minutes (Ex 480 nm/Em 540 nm).
The normalized values (% activation) were used for subsequent analyses.
Emax values and EC50 values were calculated by creating a concentration-response curve of the test compounds using a 4-parameter logistic regression with XLFit, Emax value being defined as % activation of test compound at the concentration of 10 μmol/L, and EC50 value being defined as the concentration in which 50% response of the Emax values is shown.

Compound `c1cc(-c2cscc2NCc2c[nH]cn2)[nH]n1` [Example 8, N-((1H-imidazol-4-yl)methyl)-4-(1H-pyrazol-5-yl)thiophen-3-amine] returned an Emax at 10 µM of 96% and an EC50 of 1.2 nM.
In turn, `COc1cncc(-c2cscc2NCc2c[nH]cn2)c1` [Example 5, N-((1H-imidazol-4-yl)methyl)-4-(5-methoxypyridin-3-yl)thiophen-3-amine] came in with an Emax at 10 µM of 98% and an EC50 of 0.3 nM.
Regarding `Cc1ccc(-c2cn[nH]c2)c(OCc2c[nH]cn2)c1` [Example 55], the Emax at 10 µM was determined as 101% and a half-maximal effect (EC50) was put at 0.6 nM.
In the same order, the values of `COc1n[nH]cc1-c1ccc(C)cc1NCc1c[nH]cn1` [Example 33, N-((1H-Imidazol-4-yl)methyl)-2-(3-methoxy-1H-pyrazol-4-yl)-5-methylaniline] are 97% and 3.9 nM.
On to `c1ccc(-c2ccccc2NCc2c[nH]cn2)nc1` [Example 27, N-((1H-imidazol-4-yl)methyl)-2-(pyridin-2-yl)aniline], for which the Emax at 10 µM stood at 100% and it took 2.3 nM to reach a half-maximal effect (EC50).
The compound `Cc1ccc(-c2cnccc2C)c(OCc2c[nH]cn2)c1` [Example 57] yielded an Emax at 10 µM of 96% and an EC50 of 6.1 nM.
`COc1cccc(-c2ccccc2NC(C)c2c[nH]cn2)n1` (single isomer, unassigned; (+)) [Example 39, (+)-N-(1-(1H-Imidazol-4-yl)ethyl)-2-(6-methoxypyridin-2-yl)aniline] registered an Emax at 10 µM of 94% and an EC50 of 1.9 nM.
The like results for `c1ccc(-c2ccsc2)c(SCc2c[nH]cn2)c1` [Example 82] were, in that order, 104% and 6.9 nM.
In the same order, the values of `c1csc(-c2cscc2NCc2c[nH]cn2)n1` [Example 12, N-((1H-imidazol-4-yl)methyl)-4-(thiazol-2-yl)thiophen-3-amine] are 101% and 0.4 nM.
In the case of `CC(Oc1ccccc1-c1cccs1)c1c[nH]cn1` (stereo not drawn) [Example 78, 4-(1-(2-(Thiophen-2-yl)phenoxy)ethyl)-1H-imidazole], the Emax at 10 µM worked out at 99% and the EC50 came out at 6.4 nM.
With `COc1cccnc1-c1ccccc1NCc1c[nH]cn1` [Example 28, N-((1H-imidazol-4-yl)methyl)-2-(3-methoxypyridin-2-yl)aniline], the Emax at 10 µM was found to be 96% and the EC50 is 4.9 nM.
Compound `COc1ccncc1-c1ccccc1OCc1c[nH]cn1` [Example 54] gave an Emax at 10 µM of 98% and an EC50 of 1.6 nM.
For the compound `c1cnc(-c2cscc2NCc2c[nH]cn2)cn1` [Example 13, N-((1H-imidazol-4-yl)methyl)-4-(pyrazin-2-yl)thiophen-3-amine], the maximum response (Emax) at 10 µM was found to be 101% and the EC50 worked out at 1.1 nM.
In turn, `COc1ccncc1-c1ccc(C)cc1OCc1c[nH]cn1` [Example 62] displayed an Emax at 10 µM of 91% and an EC50 of 2.4 nM.
In turn, `c1ccc(-c2cncs2)c(OCc2c[nH]cn2)c1` [Example 71] displayed an Emax of 103% and an EC50 of 1.9 nM.
As to `COc1cncc(-c2ccccc2OCc2c[nH]cn2)c1` [Example 53], the Emax at 10 µM came to 93% and the EC50 amounted to 5.1 nM.
Take `c1cncc(-c2sccc2NCc2c[nH]cn2)c1` [Example 7, N-((1H-imidazol-4-yl)methyl)-2-(pyridin-3-yl)thiophen-3-amine]: the Emax at 10 µM turned out to be 92% and the EC50 was determined as 4.5 nM.
In the same order, the values of `Cc1scnc1-c1cscc1NCc1c[nH]cn1` [Example 24, N-((1H-imidazol-4-yl)methyl)-4-(5-methylthiazol-4-yl)thiophen-3-amine] are 101% and 0.2 nM.
Consider `Cc1ccc(-c2c[nH]nc2C#N)c(OCc2c[nH]cn2)c1` [Example 56], for which the Emax at 10 µM turned out to be 105% and the EC50 came out at 0.8 nM.
For the compound `COc1cccc(-c2ccccc2NC(C)c2c[nH]cn2)n1` (stereo not drawn) [Example 37, N-(1-(1H-imidazol-4-yl)ethyl)-2-(6-methoxypyridin-2-yl)aniline], the Emax was determined as 109% and a half-maximal effect (EC50) was put at 2.1 nM.
Take `CC(Nc1ccccc1-c1cscn1)c1c[nH]cn1` (stereo not drawn) [Example 38, N-(1-(1H-imidazol-4-yl)ethyl)-2-(thiazol-4-yl)aniline]: the Emax worked out at 107% and the EC50 was found to be 0.8 nM.
As to `COc1ccnc(-c2cscc2NCc2c[nH]cn2)c1` [Example 21, N-((1H-imidazol-4-yl)methyl)-4-(4-methoxypyridin-2-yl)thiophen-3-amine], the Emax at 10 µM stood at 92% and a half-maximal effect (EC50) was put at 0.2 nM.
In turn, `N#Cc1n[nH]cc1-c1ccccc1OCc1c[nH]cn1` [Example 50] had an Emax at 10 µM of 110% and an EC50 of 0.9 nM.
For `c1cncc(-c2ccccc2OCc2c[nH]cn2)c1` [Example 48], the Emax at 10 µM was 104% and a half-maximal response (EC50) required 3 nM.
On to `COc1ncc(F)cc1-c1ccccc1OCc1c[nH]cn1` [Example 61], for which the Emax at 10 µM amounted to 90% and the EC50 was found to be 4.5 nM.
In the same order, the values of `c1cncc(-c2ccccc2SCc2c[nH]cn2)c1` [Example 80, 3-(2-(((1H-Imidazol-4-yl)methyl)thio)phenyl)pyridine] are 101% and 3.4 nM.
The like results for `Cc1n[nH]cc1-c1ccc(F)cc1OCc1c[nH]cn1` [Example 58] were, in that order, 97% and 1 nM.
`Fc1cccnc1-c1cscc1NCc1c[nH]cn1` [Example 29, N-((1H-imidazol-4-yl)methyl)-4-(3-fluoropyridin-2-yl)thiophen-3-amine]: the Emax at 10 µM was determined as 96% and the EC50 was determined as 2.3 nM.
In turn, `Cc1ccc(-c2cnccn2)c(OCc2c[nH]cn2)c1` [Example 66, 2-(2-((1H-Imidazol-4-yl)methoxy)-4-methylphenyl)pyrazine] gave a maximal effect (Emax) at 10 µM of 96% and an EC50 of 1.3 nM.
Compound `c1cncc(-c2ccccc2NCc2c[nH]cn2)c1` [Example 9, N-((1H-imidazol-4-yl)methyl)-2-(pyridin-3-yl)aniline] displayed an Emax at 10 µM of 101% and an EC50 of 2.1 nM.
`c1csc(-c2ccccc2OCc2c[nH]cn2)c1` [Example 46] registered an Emax at 10 µM of 104% and an EC50 of 4.8 nM.
Compound `c1ccc(-c2cn[nH]c2)c(SCc2c[nH]cn2)c1` [Example 81] had an Emax at 10 µM of 106% and an EC50 of 9 nM.
In turn, `c1coc(-c2ccccc2OCc2c[nH]cn2)c1` [Example 45] displayed a maximum response (Emax) at 10 µM of 107% and an EC50 of 9.4 nM.
On to `CC(Nc1ccccc1-c1cccnc1)c1c[nH]cn1` (stereo not drawn) [Example 35, N-(1-(1H-Imidazol-4-yl)ethyl)-2-(pyridin-3-yl)aniline], for which the Emax at 10 µM worked out at 90% and the midpoint of the response, the EC50, lay at 5.1 nM.
As for `c1ccc(-c2cncnc2)c(NCc2c[nH]cn2)c1` [Example 10, N-((1H-imidazol-4-yl)methyl)-2-(pyrimidin-5-yl)aniline], the Emax at 10 µM stood at 103% and a half-maximal effect (EC50) was put at 3.8 nM.
Turning to `COc1cccnc1-c1cscc1NCc1c[nH]cn1` [Example 17, N-((1H-imidazol-4-yl)methyl)-4-(3-methoxypyridin-2-yl)thiophen-3-amine], the Emax at 10 µM stood at 90% and the response was half-maximal at 2 nM (EC50).
